One assay concerns the target T1, LTB4 Receptor (Homo sapiens, UniProt Q15722).
T1 construct: Neutrophils were purified from venous blood of normal human donors; endogenous in cells; host or cells: human neutrophils from venous blood of normal donors (purity >95%)
The experiment in a line: LTB4 Receptor Binding Assay. The following applies: human neutrophils, 0.6×10^-9 M (3H)LTB4, 0° C., 45 minutes. Here is the method:
Neutrophils were purified from venous blood of normal human donors using standard techniques of dextran sedimentation, centrifugation on Ficoll-paque® (Pharmacia) or Histopaque® sterile solution (Sigma) and hypotonic lysis of erythrocytes (Boyum, A., Isolation of Leukocytes From Human Blood: Further Observations. Scand. J. Lab. Clin. Invest., 21 (Suppl. 97): 31, 1968).
Neutrophils (4- 6×10^6) in 1 ml Hanks' balanced salt solution (HBSS) containing 10 mM HEPES buffer, pH 7.4 and 20 mM nordihydroguaiaretic acid were incubated with 0.6×10^-9 M (^3 H) LTB4 in the presence or absence of test compounds. The incubation was carried out at 0° C. for 45 minutes and terminated by adding 5 ml of ice-cold HBSS followed by rapid filtration of the incubation mixture under vacuum through GF/C glass fiber filters. The filters were further washed with 10 ml HBSS and radioactivity was determined. Specific binding was defined as the difference between total binding and nonspecific binding which was not displaced by 10^-7 M unlabeled LTB4. All data refer to specific binding.

Assay [1] concerns Human neutrophils (LTB4 chemotaxis). Briefly: Modified Boyden Chamber Chemotaxis (LTB4-induced neutrophil chemotaxis). The format is cell-based. To be noted: 3×10^-8 M LTB4, 40-90 minute incubation at 37° C. An excerpt: Neutrophils were purified from venous blood of normal human donors using standard techniques of dextran sedimentation, centrifugation on Ficoll-paque® (Pharmacia) or Histopaque® sterile solution (Sigma) and hypotonic lysis of erythrocytes (Boyum, A., Isolation of Leukocytes From Human Blood: Further Observations. Scand. J. Lab. Clin. Invest., 21 (Suppl. 97): 31, 1968). The purity of isolated neutrophils was >95%.
Human neutrophils were isolated from citrated peripheral blood using standard techniques of dextran sedimentation, followed by centrifugation on Histopaque® sterile solution (Sigma) or Ficoll-paque® (Pharmacia) and hypotonic lysis of erythrocytes. A final cell suspension of 3.4×10^6 neutrophils/ml of HEPES-buffered Hanks' balanced salt solution (HBSS, pH 7.3) was added to the upper well (0.8 ml) of a modified Boyden chamber (blind well). The lower well (0.2 ml), separated by a polycarbonate membrane (Nucleopore Corp.), contained HBSS or 3×10^-8 M LTB4 in the presence or absence of test compound. Following a 40-90 minute incubation at 37° C. in 5% CO2 -95% air, cells from the lower well were lysed and nuclei counted in a Model S-Plus-IV Coulter Counter. The number of neutrophils migrating into the lower chamber in the absence of chemoattractant was subtracted from the number of cells migrating in the presence of a chemoattractant. Inhibition of chemotaxis by test compounds was expressed as percent inhibition relative to uninhibited control.

Among the data in patent US5578619A, “Alkoxy-substituted dihydrobenzopyran-2-sulfonimides” (priority 1995, dated 1996) are IC50 values, retold here.

T1 sequence (Q15722 whole entry): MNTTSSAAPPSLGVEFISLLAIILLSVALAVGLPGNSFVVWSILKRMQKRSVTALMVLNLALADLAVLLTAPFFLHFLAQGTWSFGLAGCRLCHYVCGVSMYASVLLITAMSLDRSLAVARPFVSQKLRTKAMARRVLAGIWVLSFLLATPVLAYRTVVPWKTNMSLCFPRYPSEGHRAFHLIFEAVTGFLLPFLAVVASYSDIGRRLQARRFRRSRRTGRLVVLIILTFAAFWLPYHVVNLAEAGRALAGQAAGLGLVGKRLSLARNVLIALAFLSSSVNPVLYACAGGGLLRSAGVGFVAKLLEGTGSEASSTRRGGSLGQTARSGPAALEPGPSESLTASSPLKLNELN

What is called IC50 is the concentration at which inhibition is half-maximal. For `CCCc1c(OCCCOc2ccc(-c3cscn3)c(OC)c2CC2CC2)ccc2c1OC(CCC(=O)NS(=O)(=O)c1ccccc1)CC2` (centres unmarked) [Example 15, Benzo sulfonimide of 3,4-Dihydro-7-[3-[3-methoxy-2-cycloproplymethyl-4-(4-thiazolyl)phenoxy]propoxy]-8-propyl-2H-1-benzopyran-2-propionic acid], the half-inhibitory concentration (IC50) was determined as 4.3 nM at LTB4 Receptor and 66 nM in assay [1].

As to `CCCc1c(OCCCOc2ccc(-c3cscn3)c(OC)c2CC2CC2)ccc2c1OC(C(=O)NS(=O)(=O)c1ccccc1)CC2` (centres unmarked) [Example 9, Benzo sulfonimide of 7-[3-[2-(Cyclopropylmethyl)-3-methoxy-4-(4-thiazolyl)phenoxy]propoxy]-3,4-dihydro-8-propyl-2H-1-benzopyran-2-carboxylic acid], the values for the half-maximal inhibitory concentration (IC50) (at LTB4 Receptor; in assay [1]) were 5.5 nM and 53 nM, respectively.

Molecule `CCCc1c(OCCCOc2ccc(C(C)=O)c(OC)c2CCC)ccc2c1OC(C(=O)O)CC2` (centres unmarked) [Example 1(b), 7-[3-(4-acetyl-3-methoxy-2-propylphenoxy)propoxy]-3,4-dihydro-8-propyl-2H-1-benzopyran-2-carboxylic acid, reference compound] gave an IC50 in assay [1] of 1050 nM. That is a single-digit micromolar value.
